Peptide text beside a SMILES is read from it.
Legend:
TAF3 PHD = biological target: T1, TAF3 PHD (Homo sapiens, UniProt Q5VWG9); assay: BLI binding; conditions: 1:1 binding model
T1 construct: TAF3 PHD
Description: (§1) against KDM7 and other protein domains. t1/2 = half life (0.693 / Koff)
(§2) (1 picture or pasted object on this page, not shown here)

DIDO PHD = biological target: T2, DIDO PHD (Homo sapiens, UniProt Q9BTC0); assay: BLI binding; conditions: 1:1 binding model
T2 construct: DIDO PHD
T2 sequence (Q9BTC0 268-322 limits assumed): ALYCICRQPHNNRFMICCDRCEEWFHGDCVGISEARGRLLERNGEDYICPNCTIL
Description: as §1, §2

ING2 PHD = biological target: T3, ING2 PHD (Homo sapiens, UniProt Q9H160); assay: BLI binding; conditions: 1:1 binding model
T3 construct: ING2 PHD
T3 sequence (Q9H160 212-261 limits assumed): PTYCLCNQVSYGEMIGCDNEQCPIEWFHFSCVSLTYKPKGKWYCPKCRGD
Description: as §1, §2

SPIN1 TTD = SPIN1 TTD (Homo sapiens, UniProt Q9Y657); assay: BLI binding; conditions: 1:1 binding model
Sequence of SPIN1 TTD (Q9Y657 53-262 limits assumed): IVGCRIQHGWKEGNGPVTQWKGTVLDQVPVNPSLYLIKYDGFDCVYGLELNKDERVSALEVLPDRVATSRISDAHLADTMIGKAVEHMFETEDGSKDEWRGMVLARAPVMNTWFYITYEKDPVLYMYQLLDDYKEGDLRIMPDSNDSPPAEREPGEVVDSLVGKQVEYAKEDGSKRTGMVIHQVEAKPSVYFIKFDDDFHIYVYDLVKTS
Description: as §1, §2

KDM7B dual domain = biological target: T4, KDM7B dual domain (Homo sapiens, UniProt Q9UPP1); assay: HDX-MS; assay type: binding; conditions: relative to DMSO
T4 construct: dual domain (PHD-JmjC) of KDM7B; His-tag (C); made in house
T4 sequence (Q9UPP1 37-483 limits assumed): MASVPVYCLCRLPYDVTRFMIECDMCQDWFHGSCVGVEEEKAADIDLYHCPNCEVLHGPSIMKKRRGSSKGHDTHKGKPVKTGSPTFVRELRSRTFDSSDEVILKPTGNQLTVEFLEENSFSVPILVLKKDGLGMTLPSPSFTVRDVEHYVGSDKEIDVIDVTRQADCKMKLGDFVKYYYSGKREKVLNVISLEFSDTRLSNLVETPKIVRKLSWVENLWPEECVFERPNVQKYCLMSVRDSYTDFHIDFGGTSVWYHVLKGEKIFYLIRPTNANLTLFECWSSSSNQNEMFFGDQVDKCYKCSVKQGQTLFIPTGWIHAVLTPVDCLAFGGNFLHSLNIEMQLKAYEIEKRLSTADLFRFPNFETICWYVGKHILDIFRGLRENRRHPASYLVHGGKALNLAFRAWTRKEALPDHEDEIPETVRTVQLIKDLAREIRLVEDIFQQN
Description: (§3) To further evaluate the interactions of OC9 with KDM7B we used hydrogen–deuterium exchange mass spectrometry (HDX-MS), which informs on protein dynamics by following deuterium incorporation into the protein amide backbone (Fig. 2).
(§4) The residue level view was generated by averaging mass changes across overlapping peptide fragments. Supporting data available in ESI. ^† K4me3 binding aromatic cage residues (‘YYMW’ Fig. 1a) are indicated by red asterix.

KDM7B PHD-finger = biological target: T5, KDM7B PHD-finger (Homo sapiens, UniProt Q9UPP1); assay: HDX-MS; assay type: binding; conditions: 60 minute time-course, relative to DMSO
T5 construct: KDM7B 1-66; His-tag (C); made in house
T5 sequence (Q9UPP1 1-66 isoform Q9UPP1-2): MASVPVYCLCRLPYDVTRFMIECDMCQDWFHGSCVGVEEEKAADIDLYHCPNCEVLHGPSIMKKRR
Description: as §3, §4

T1 sequence (Q5VWG9 865-915 limits assumed): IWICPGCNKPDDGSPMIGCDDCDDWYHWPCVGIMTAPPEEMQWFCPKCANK

CC(C)C[C@@H]1NC(=O)[C@H](Cc2ccc(O)cc2)NC(=O)[C@H](Cc2ccc(O)cc2)NC(=O)CSC[C@@H](C(N)=O)NC(=O)[C@H]([C@@H](C)O)NC(=O)[C@H](CCCNC(=N)N)NC(=O)[C@H](Cc2ccccc2)NC(=O)[C@H](C(C)C)NC(=O)[C@H](CO)NC(=O)[C@@H]2CCCN2C(=O)[C@H](Cc2ccc(O)cc2)NC(=O)[C@@H]2CCCN2C(=O)[C@H](Cc2c[nH]cn2)NC(=O)[C@H]([C@@H](C)O)NC1=O [OC9] (HELM PEPTIDE1{[O=C(C[*:3])[*:2]].Y.Y.L.T.H.P.Y.P.S.V.F.R.T.C.[am]}$PEPTIDE1,PEPTIDE1,1:R3-15:R3$$$V2.0)
Kd (TAF3 PHD): > 1 µM
BLI KD, DIDO PHD (DIDO PHD): no measurable affinity
Kd (DIDO PHD): > 1 µM
Kd (ING2 PHD): > 1 µM
Kd (SPIN1 TTD): > 1 µM
HDX-MS effect on deuterium uptake, KDM7B dual domain (KDM7B dual domain): only reduced deuterium uptake in peptide fragments within the PHD-finger
HDX-MS effect on deuterium uptake, KDM7B PHD-finger (KDM7B PHD-finger): affected an even greater proportion

Source: paper PMC10321576, “Cyclic peptides target the aromatic cage of a PHD-finger reader domain to modulate epigenetic protein function” (Chemical Science, 2023)
